The text below walks through data of patent US20240083861A1, “HSD17B13 INHIBITORS AND USES THEREOF” (FL2022-001, Inc., priority 2020, published 2024).

Molecules are shown by their SMILES. Some results are limits rather than exact numbers.

The test deals with T1, Recombinant human HSD17B13 enzyme (Homo sapiens, UniProt Q7Z5P4).
T1 sequence (Q7Z5P4 20-300): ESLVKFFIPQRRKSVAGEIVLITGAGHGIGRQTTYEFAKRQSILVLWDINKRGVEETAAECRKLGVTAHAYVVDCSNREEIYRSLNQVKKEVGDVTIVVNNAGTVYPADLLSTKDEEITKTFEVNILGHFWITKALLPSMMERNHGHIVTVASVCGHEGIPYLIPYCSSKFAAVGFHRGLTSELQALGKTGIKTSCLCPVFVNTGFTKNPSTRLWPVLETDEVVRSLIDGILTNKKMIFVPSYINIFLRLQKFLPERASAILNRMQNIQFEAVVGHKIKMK
The test can be described thus: HSD17b13 NAD(P)H-Glo biochemical assay. As to conditions: 50 uM estradiol, 1 mM NAD+, NAD(P)H-Glo luminescence; read-out: HSD17β13 IC50. The procedure, abridged:
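Recombinant human HSD17B13 in 20 mM Tris pH7.4 with 0.002% Tween-20 and 0.02% BSA was preincubated with inhibitor for 20 minutes at RT. The reaction ran 3 hours at 37° C with 50 uM estradiol and 1 mM NAD+ (final). NADH formed was detected by NAD(P)H-Glo luminescence after 1 hour at RT.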

For the molecule `Cn1nc(-c2cc(C(F)(F)F)c(F)c(O)c2F)c2cnc(N3CCOCC34CCC4)cc21` [Compound 9.35, 2,6-Difluoro-3-(1-methyl-6-(8-oxa-5-azaspiro[3.5]nonan-5-yl)-1H-pyrazolo[4,3-c]pyridin-3-yl)-5-(trifluoromethyl)phenol], the IC50 was less than 100 nM.

Take `CO[C@H]1C[C@@H](N(C)c2cc3c(cn2)c(-c2cc(C(F)(F)F)c(F)c(O)c2F)nn3C)C1` [Compound 9.36, 2,6-Difluoro-3-(6-((cis-3-methoxycyclobutyl)(methyl)amino)-1-methyl-1H-pyrazolo[4,3-c]pyridin-3-yl)-5-(trifluoromethyl)phenol]: the half-maximal inhibitory concentration (IC50) is less than 100 nM.

On to `CCn1nc(-c2cc(C(F)(F)F)c(F)c(O)c2F)c2cnc(N3CCOCC34CC4)cc21` [Compound 9.37, 3-(1-Ethyl-6-(7-oxa-4-azaspiro[2.5]octan-4-yl)-1H-pyrazolo[4,3-c]pyridin-3-yl)-2,6-difluoro-5-(trifluoromethyl)phenol], for which the IC50 was less than 100 nM.

Regarding `Cn1nc(-c2cc(C(F)(F)F)c(F)c(O)c2F)c2cnc(N3CCOCC3C3CC3)cc21` (stereo not shown) [Compound 9.38, 3-(6-(3-Cyclopropylmorpholino)-1-methyl-1H-pyrazolo[4,3-c]pyridin-3-yl)-2,6-difluoro-5-(trifluoromethyl)phenol], the IC50 was less than 100 nM.

Turning to `CN(c1ncc2c(-c3cc(C(F)(F)F)c(F)c(O)c3F)nn(C)c2n1)C1CCOCC1` [Compound 9.39, 2,6-Difluoro-3-(1-methyl-6-(methyl(tetrahydro-2H-pyran-4-yl)amino)-1H-pyrazolo[3,4-d]pyrimidin-3-yl)-5-(trifluoromethyl)phenol], the IC50 was less than 100 nM.

As to `CN(c1ccc2c(-c3cc(C(F)(F)F)c(F)c(O)c3F)nn(C)c2n1)C1CCOCC1` [Compound 9.40, 2,6-Difluoro-3-(1-methyl-6-(methyl(tetrahydro-2H-pyran-4-yl)amino)-1H-pyrazolo[3,4-b]pyridin-3-yl)-5-(trifluoromethyl)phenol], the IC50 was less than 100 nM.

With `Cn1nc(-c2cc(C(F)(F)F)c(F)c(O)c2F)c2ccc(N3CCOCC34CCC4)nc21` [Compound 9.41, 2,6-Difluoro-3-(1-methyl-6-(8-oxa-5-azaspiro[3.5]nonan-5-yl)-1H-pyrazolo[3,4-b]pyridin-3-yl)-5-(trifluoromethyl)phenol], the IC50 was less than 100 nM.

In the case of `Cn1nc(-c2cc(C(F)(F)F)c(F)c(O)c2F)c2cnc(N3CC4CCC3CC4)cc21` [Compound 9.42, 3-(6-(2-Azabicyclo[2.2.2]octan-2-yl)-1-methyl-1H-pyrazolo[4,3-c]pyridin-3-yl)-2,6-difluoro-5-(trifluoromethyl)phenol], the IC50 is less than 100 nM.

In the case of `Cn1nc(-c2cc(C(F)(F)F)c(F)c(O)c2F)c2cnc(N3CCNC(=O)C34CC4)cc21` [Compound 9.43, 4-(3-(2,4-Difluoro-3-hydroxy-5-(trifluoromethyl)phenyl)-1-methyl-1H-pyrazolo[4,3-c]pyridin-6-yl)-4,7-diazaspiro[2.5]octan-8-one], the IC50 was less than 100 nM.

For the molecule `CN(c1cc2c(cn1)c(-c1cc(C(F)(F)F)c(F)c(O)c1F)nn2C)C1CCCOC1` (stereo not shown) [Compound 9.44, 2,6-Difluoro-3-(1-methyl-6-(methyl(tetrahydro-2H-pyran-3-yl)amino)-1H-pyrazolo[4,3-c]pyridin-3-yl)-5-(trifluoromethyl)phenol], the IC50 is less than 100 nM.

Take `CCC1COCCN1c1cc2c(cn1)c(-c1cc(C(F)(F)F)c(F)c(O)c1F)nn2C` (stereo not shown) [Compound 9.45, 3-(6-(3-Ethylmorpholino)-1-methyl-1H-pyrazolo[4,3-c]pyridin-3-yl)-2,6-difluoro-5-(trifluoromethyl)phenol]: the IC50 was less than 100 nM.

Turning to `CCN(c1cc2c(cn1)c(-c1cc(C(F)(F)F)c(F)c(O)c1F)nn2C)C1CCC1` [Compound 9.46, 3-(6-(Cyclobutyl(ethyl)amino)-1-methyl-1H-pyrazolo[4,3-c]pyridin-3-yl)-2,6-difluoro-5-(trifluoromethyl)phenol], the IC50 was less than 100 nM.

For `COC1CCN(c2cc3c(cn2)c(-c2cc(C(F)(F)F)c(F)c(O)c2F)nn3C)CC1` [Compound 9.47, 2,6-Difluoro-3-(6-(4-methoxypiperidin-1-yl)-1-methyl-1H-pyrazolo[4,3-c]pyridin-3-yl)-5-(trifluoromethyl)phenol], the IC50 was less than 100 nM.

With `Cn1nc(-c2cc(C(F)(F)F)c(F)c(O)c2F)c2cnc(N3CCOC4(CC4)C3)cc21` [Compound 9.48, 2,6-Difluoro-3-(1-methyl-6-(4-oxa-7-azaspiro[2.5]octan-7-yl)-1H-pyrazolo[4,3-c]pyridin-3-yl)-5-(trifluoromethyl)phenol], the IC50 is less than 100 nM.

With `Cn1nc(-c2cc(C(F)(F)F)c(F)c(O)c2F)c2cnc(N3CCC(O)CC34CC4)cc21` (stereo not shown) [Compound 9.49, 4-(3-(2,4-Difluoro-3-hydroxy-5-(trifluoromethyl)phenyl)-1-methyl-1H-pyrazolo[4,3-c]pyridin-6-yl)-4-azaspiro [2.5]octan-7-ol], the IC50 is less than 100 nM.

For `COCCN(c1cc2c(cn1)c(-c1cc(C(F)(F)F)c(F)c(O)c1F)nn2C)C1CCOCC1` [Compound 9.50, 2,6-Difluoro-3-(6-((2-methoxyethyl)(tetrahydro-2H-pyran-4-yl)amino)-1-methyl-1H-pyrazolo[4,3-c]pyridin-3-yl)-5-(trifluoromethyl)phenol], the IC50 is less than 100 nM.

As for `Cn1nc(-c2cc(C(F)(F)F)c(F)c(O)c2F)c2cnc(N(CC3CC3)C3CCC3)cc21` [Compound 9.51, 3-(6-(Cyclobutyl(cyclopropylmethyl)amino)-1-methyl-1H-pyrazolo[4,3-c]pyridin-3-yl)-2,6-difluoro-5-(trifluoromethyl)phenol], the IC50 was less than 100 nM.

Regarding `CC(C)C1COCCN1c1cc2c(cn1)c(-c1cc(C(F)(F)F)c(F)c(O)c1F)nn2C` (stereo not shown) [Compound 9.52, 2,6-Difluoro-3-(6-(3-isopropylmorpholino)-1-methyl-1H-pyrazolo[4,3-c]pyridin-3-yl)-5-(trifluoromethyl)phenol], the IC50 was less than 100 nM.

As to `Cn1nc(-c2cc(C(F)(F)F)c(F)c(O)c2F)c2cnc(N3CCNC4(CC4)C3=O)cc21` [Compound 9.53, 7-(3-(2,4-Difluoro-3-hydroxy-5-(trifluoromethyl)phenyl)-1-methyl-1H-pyrazolo[4,3-c]pyridin-6-yl)-4,7-diazaspiro[2.5]octan-8-one], the IC50 lay within 100 to 1000 nM.

Turning to `Oc1c(F)c(-c2nn(C3CCOCC3)c3cc(N4CCOCC45CC5)ncc23)cc(C(F)(F)F)c1F` [Compound 9.54, 3-(6-(7-Oxa-4-azaspiro[2.5]octan-4-yl)-1-(tetrahydro-2H-pyran-4-yl)-1H-pyrazolo[4,3-c]pyridin-3-yl)-2,6-difluoro-5-(trifluoromethyl)phenol], the IC50 is less than 100 nM.

Turning to `Oc1c(F)c(-c2nn(C3COC3)c3cc(N4CCOCC45CC5)ncc23)cc(C(F)(F)F)c1F` [Compound 9.55, 2,6-Difluoro-3-(1-(oxetan-3-yl)-6-(7-oxa-4-azaspiro [2.5]octan-4-yl)-1H-pyrazolo[4,3-c]pyridin-3-yl)-5-(trifluoromethyl)phenol], the IC50 was less than 100 nM.

In the case of `Oc1c(F)c(-c2nn(C3CCC3)c3cc(N4CCOCC45CC5)ncc23)cc(C(F)(F)F)c1F` [Compound 9.56, 3-(1-Cyclobutyl-6-(7-oxa-4-azaspiro[2.5]octan-4-yl)-1H-pyrazolo[4,3-c]pyridin-3-yl)-2,6-difluoro-5-(trifluoromethyl)phenol], the IC50 is less than 100 nM.

With `Cn1nc(-c2cc(C(F)(F)F)c(F)c(O)c2F)c2cnc(N3CCOCC3)cc21` [Compound 9.57, 2,6-Difluoro-3-(1-methyl-6-morpholino-1H-pyrazolo[4,3-c]pyridin-3-yl)-5-(trifluoromethyl)phenol], the IC50 is less than 100 nM.

In the case of `Cn1nc(-c2cc(C(F)(F)F)c(F)c(O)c2F)c2cnc(N3CCCOCC3)cc21` [Compound 9.58, 2,6-Difluoro-3-(1-methyl-6-(1,4-oxazepan-4-yl)-1H-pyrazolo[4,3-c]pyridin-3-yl)-5-(trifluoromethyl)phenol], the IC50 is less than 100 nM.

`Cn1nc(-c2cc(C(F)(F)F)c(F)c(O)c2F)c2cnc(N3CCCCC34CCC4)cc21` [Compound 9.59, 2,6-Difluoro-3-(1-methyl-6-(5-azaspiro[3.5]nonan-5-yl)-1H-pyrazolo[4,3-c]pyridin-3-yl)-5-(trifluoromethyl)phenol]: the IC50 is less than 100 nM.

For the molecule `COCC1COCCN1c1cc2c(cn1)c(-c1cc(C(F)(F)F)c(F)c(O)c1F)nn2C` (stereo not shown) [Compound 9.60, 2,6-Difluoro-3-(6-(3-(methoxymethyl)morpholino)-1-methyl-1H-pyrazolo[4,3-c]pyridin-3-yl)-5-(trifluoromethyl)phenol], the IC50 is less than 100 nM.

Consider `Cn1nc(-c2cc(C(F)(F)F)c(F)c(O)c2F)c2cnc(N3CCOCC3C3(C)CC3)cc21` (stereo not shown) [Compound 9.61, 2,6-Difluoro-3-(1-methyl-6-(3-(1-methylcyclopropyl)morpholino)-1H-pyrazolo[4,3-c]pyridin-3-yl)-5-(trifluoromethyl)phenol], for which the IC50 is less than 100 nM.

`CC(=O)N1CCN(c2cc3c(cn2)c(-c2cc(C(F)(F)F)c(F)c(O)c2F)nn3C)CC1` [Compound 9.62, 1-(4-(3-(2,4-Difluoro-3-hydroxy-5-(trifluoromethyl)phenyl)-1-methyl-1H-pyrazolo[4,3-c]pyridin-6-yl)piperazin-1-yl)ethanone]: the IC50 was in the range of 100 to 1000 nM.

As a reminder, the IC50 is the concentration at which inhibition is half-maximal.
